Assay results published in ChEMBL document CHEMBL3745612, “Synthesis and biological evaluation of thiophene and benzo[b]thiophene analogs of combretastatin A-4 and isocombretastatin A-4: A comparison between the linkage positions of the 3,4,5-trimethoxystyrene unit” (Bioorg Med Chem Lett, 2016).

Tests used:
[1] = target: Tubulin; assay: Inhibition of Tubulin polymerization in human HeLa cells assessed as decrease in dynamic tyrosinated microtubules after 2 hrs by microplate reader analysis; format: cell-based
[2] = Antiproliferative activity against human IC8 cells after 72 hrs by MTT assay; format: functional, cell-based; conditions: IC8, 72 h
[3] = tested on: MES-SA; assay: Antiproliferative activity against human MES-SA cells after 72 hrs by resazurin assay; format: functional, cell-based
[4] = Inhibition of sheep brain tubulin polymerization incubated at 37 degC for 10 mins and 0 degC for 5 mins by turbidimetry; design: species or system Ovis aries

Row | Compound | EC50 [1] [nM] | EC50 [4] [nM] | IC50 [2] [nM] | IC50 [3] [nM]
1 | COc1cc(C(=O)c2csc3ccccc23)cc(OC)c1OC | > 10000 |  |  | 
2 | COc1cc(/C=C\c2ccsc2)cc(OC)c1OC | > 10000 |  |  | 
3 | C=C(c1cc(OC)c(OC)c(OC)c1)c1cccs1 | > 10000 |  |  | 
4 | COc1ccc(/C=C\c2cc(OC)c(OC)c(OC)c2)s1 | 1560 |  | 76 | 53
5 | COc1cc(/C=C\c2cccs2)cc(OC)c1OC | > 10000 |  |  | 
6 | C=C(c1cc(OC)c(OC)c(OC)c1)c1cc2ccccc2o1 | > 10000 |  |  | 
7 | C=C(c1ccsc1)c1cc(OC)c(OC)c(OC)c1 | > 10000 |  |  | 
8 | COc1csc(/C=C\c2cc(OC)c(OC)c(OC)c2)c1 | 81 |  | 27 | 25
9 | C=C(c1cc(OC)c(OC)c(OC)c1)c1csc2ccccc12 | 3900 |  |  | 
10 | COc1ccc(/C=C\c2cc(OC)c(OC)c(OC)c2)cc1O [COMBRETASTATIN A4] |  |  | 4 | 3
11 | COc1cc2c(c(OC)c1OC)-c1ccc(OC)c(=O)cc1[C@@H](NC(C)=O)CC2 [COLCHICINE] |  |  | 15 | 15

More lines, main results first:

Row | EC50 [1] [nM] | EC50 [4] [nM] | Compound | IC50 [2] [nM] | IC50 [3] [nM]
12 | 2600 | 80 | COc1cc(/C=C\c2cc3ccccc3s2)cc(OC)c1OC | 17 | 13
13 | 3180 |  | COc1cc(/C=C/c2cc3ccccc3s2)cc(OC)c1OC |  | 
14 | 2430 |  | COc1cc(/C=C\c2csc3ccccc23)cc(OC)c1OC | 288 | 191
15 | > 10000 |  | COc1cc(C(=O)c2cc3ccccc3s2)cc(OC)c1OC |  | 
16 | 321 |  | C=C(c1cc(OC)c(OC)c(OC)c1)c1cc2ccccc2s1 | 101 | 95
